From patent US20230172203A1, “PLANT METABOLISM PROMOTING COMPOSITIONS AND METHODS OF USE” (Panoptic Ag Solutions LLC, priority 2021, published 2023)

Tests used:
[1] = test system: Whale variety spinach plant seedlings; assay: 2021 Greenhouse Spinach Trial; type: in vivo
From the text: The base formulation used in greenhouse trials was an aqueous solution of L-theanine (20% by weight). The base formulation was further diluted with water as detailed for each trial. Whale variety spinach plant seedlings (n=6/treatment) were planted in commercial potting soil and then were transplanted to 3-gallon pots. L-theanine treatment was applied at the equivalent of 1 pint in 100 gallons of water (125 ppm) and sprayed till runoff. Two treatment applications were made to the plants approximately 14 days apart.

Zinnia plants = assay: 2021 Zinnia Greenhouse Trial; type: in vivo
From the text: The base formulation used in greenhouse trials was an aqueous solution of L-theanine (20% by weight). The base formulation was further diluted with water as detailed for each trial. Zinna seeds (n=6/treatment) were planted in commercial potting soil and then transplanted into 3-gallon pots. L-theanine treatment was applied at the equivalent of 1 pint in 100 gallons of water (125 ppm) and sprayed till runoff. Two treatments were made to the plants approximately 14 days apart.

Dwarf sunflower = assay: 2021 Greenhouse Sunflower Trial; type: in vivo
From the text: The base formulation used in greenhouse trials was an aqueous solution of L-theanine (20% by weight). The base formulation was further diluted with water as detailed for each trial. Dwarf sunflower seeds (n=9/treatment) were planted in commercial potting soil in 1-gallon pots. Approximately 14 days after emergence, an L-theanine solution was applied to the foliage at the equivalent of 8 fl. oz./acre in 50 gallons of water (125 ppm) and sprayed till run off. One application was made.

Almond trees = assay: 2021 Replicated California Almond Trial; type: in vivo
Protocol: Almond trees (n=6) were treated with a 20% aqueous solution of L-theanine at 1 pint per acre at pink bud and full bloom. Additional applications at 0.5 pint per acre soil were applied at petal fall, petal fall +3 weeks, and petal fall +6 weeks for a total of applications. The trial was maintained at grower standard fertilizer and pest management throughout the course of the trial.

Mature apple trees = assay: 2021 New York Replicated Apple Field Trial; type: in vivo
Protocol: Mature apple trees (n=6) were treated with a 20% aqueous L-theanine solution at 1 pint per acre with application timings at Pink Bud, Bloom, Petal Fall, and every 2 weeks from Petal Fall until harvest.

Soybean plants = assay: 2021 Greenhouse Soybean Trial (foliar application); type: in vivo
Protocol: The base formulation used in greenhouse trials was an aqueous solution of L-theanine (20% by weight). The base formulation was further diluted with water as detailed for each trial. Soybean seeds (n=12/treatment) were planted in commercial potting soil in 1 gallon pots. […] The plants were grown for another 14 days then harvested.

Mature cherry trees = assay: 2022 Replicated California Cherry Trial; type: in vivo
Protocol: Mature cherry trees (n=6) were treated with a 10% aqueous L-theanine solution at 1 pint per acre with application timings at Early Bloom, Petal Fall, and Early Fruit set. The trial was maintained at grower standard fertilizer and pest management throughout the course of the trial.

tea plants = conditions: exogenous application; background statement; cited from earlier work
Corn plants = assay: 2021 Greenhouse Corn Trial (drench, two rates); type: in vivo; conditions: for Plant Biomass / Root Length: drench 50 mL per pot, harvested 21 days later
Protocol: The base formulation used in greenhouse trials was an aqueous solution of L-theanine (20% by weight). The base formulation was further diluted with water as detailed for each trial. Corn seed (n=14/treatment) was planted in commercial potting soil in 3-gallon pots. Approximately 14 days after emergence, an aqueous solution of L-theanine was applied at a rate of 0.2 mL (Treatment 2) and 0.4 mL (Treatment 3) per 1000 mL water. The resulting solutions were drenched at a rate of 50 mL per pot. The plants were grown for an additional 21 days then harvested.

[2] = test system: Seedless watermelon plant seedlings; assay: 2021 Watermelon Trial; type: in vivo
From the text: The base formulation used in greenhouse trials was an aqueous solution of L-theanine (20% by weight). The base formulation was further diluted with water as detailed for each trial. Seedless watermelon plant seedlings (n=4/treatment) were planted in commercial potting soil and then were transplanted to 3-gallon pots. L-theanine treatment was applied at the equivalent of 1 pint in 100 gallons of water (125 ppm) and sprayed till runoff. Two treatment applications were made to the plants approximately 14 days apart.

[3] = foliar spray 125 ppm till runoff, two applications ~14 days apart
[4] = vs untreated check, 125 ppm foliar, two applications
[5] = foliar spray 125 ppm till runoff, two treatments ~14 days apart
[6] = over the untreated check, 125 ppm foliar, two treatments
[7] = foliar, 8 fl. oz./acre in 50 gallons of water (125 ppm), one application
[8] = over the untreated check, 125 ppm foliar, one application
[9] = 20% aqueous solution at 1 pint per acre, Pink Bud, Bloom, Petal Fall, then every 2 weeks until harvest
[10] = above the untreated check, foliar 125 ppm
[11] = foliar, 8 fl. oz./50 gallons of water (125 ppm) till runoff, harvested 14 days later
[12] = Treatment 2 (0.2 mL per 1000 mL), above the untreated check
[13] = Treatment 2: 8 fl. oz./acre (0.2 mL per 1000 mL water)
[14] = Treatment 3 (0.4 mL per 1000 mL), above the untreated check
[15] = Treatment 3: 16 fl. oz./acre (0.4 mL per 1000 mL water)

Compound: CCNC(=O)CC[C@H](N)C(=O)O [L-theanine]
- Basal Diameter [1, 3]: 3.07 a mm
- Leaf (count) [1, 3]: 8.66 a count
- Plant Height [1, 3]: 8.67 a in
- increase in leaf count [1, 4]: 1
- increase in leaf count, percent [1, 4]: 13.1%
- increase in plant height [1, 4]: 1.67 in
- increase in plant height, percent [1, 4]: 23.9%
- Basal Diameter (Zinnia plants; [5]): 6.45 a mm
- Flower (count) (Zinnia plants; [5]): 10.17 count
- Plant Height (Zinnia plants; [5]): 35.83 a cm
- increase in basal diameter (Zinnia plants; [6]): 1.2 mm
- increase in basal diameter, percent (Zinnia plants; [6]): 22.9%
- increase in flower counts (Zinnia plants; [6]): 6.0
- increase in flower counts, percent (Zinnia plants; [6]): 143.9%
- increase in plant height (Zinnia plants; [6]): 9.66 cm
- increase in plant height, percent (Zinnia plants; [6]): 36.9%
- Root Length (Dwarf sunflower; [7]): 1765.1 a cm
- Root Surface Area (Dwarf sunflower; [7]): 491.1 a cm^2
- Root Volume (Dwarf sunflower; [7]): 10.9 a cm^3
- Plant Biomass (Dwarf sunflower; foliar, 8 fl. oz./acre in 50 gallons of water (125 ppm), one application ~14 days after emergence): 38.63 a g
- increase in biomass (Dwarf sunflower; [8]): 4.4 grams
- increase in biomass, percent (Dwarf sunflower; [8]): 12.8%
- increase in root length (Dwarf sunflower; [8]): 70.5 cm
- increase in root length, percent (Dwarf sunflower; [8]): 4.2%
- increase in root surface area (Dwarf sunflower; [8]): 61.5 cm^2
- increase in root surface area, percent (Dwarf sunflower; [8]): 14.3%
- increase in root volume (Dwarf sunflower; [8]): 2.2 cm^3
- increase in root volume, percent (Dwarf sunflower; [8]): 25.3%
- Yield (Almond trees; 20% aqueous solution, 1 pint per acre at pink bud and full bloom, 0.5 pint per acre soil at petal fall, +3 weeks, +6 weeks): 152.2 a lbs/tree
- increase in almond yield (average) (Almond trees; vs untreated check): 15.3 lbs per tree
- increase in almond yield, percent (Almond trees; vs untreated check): 11.2%
- Defects (Mature apple trees; [9]): 114.5 a bu/acre
- Salable Yield (Mature apple trees; [9]): 837.8 a bu/acre
- Total Yield (Mature apple trees; [9]): 952.3 a bu/acre
- increase in salable yield, percent (Mature apple trees; vs untreated check): 12.5%
- number of defective fruits (in words) (Mature apple trees; vs untreated check): reduced the number of defective fruits
- increase in salable yield (Mature apple trees; vs untreated check, 1 bushel=48 lbs): 93.1 bushels/acre
- increase in biomass (Soybean plants; [10]): 2.2 g
- increase in biomass, percent (Soybean plants; [10]): 20.1%
- increase in root length (Soybean plants; [10]): 254.6 cm
- increase in root length, percent (Soybean plants; [10]): 13.2%
- increase in root tips (Soybean plants; [10]): 1345.1
- increase in root tips, percent (Soybean plants; [10]): 36.1%
- Plant Biomass (Soybean plants; [11]): 13.02 a g
- Root Length (Soybean plants; [11]): 2185.8 a cm
- Root Tips (count) (Soybean plants; [11]): 5075.9 a count
- Yield (Mature cherry trees; 10% aqueous solution at 1 pint per acre, Early Bloom, Petal Fall, Early Fruit set): 70.3 a Boxes/Acre
- increase in yield (Mature cherry trees; over the untreated check): 12.8 boxes/acre
- increase in yield, percent (Mature cherry trees; over the untreated check): 22.3%
- quality and yield of tea plants (in words) (tea plants): can improve the quality and yield of tea plants by increasing the number of usable leaves
- change in biomass (Corn plants; [12]): 9.0 grams
- change in biomass, percent (Corn plants; [12]): 13.9%
- change in root length (Corn plants; [12]): −106.8
- change in root length, percent (Corn plants; [12]): −6.0%
- Plant Biomass (Corn plants; [13]): 74.0 a g
- Root Length (Corn plants; [13]): 1683.8 a cm
- change in biomass (Corn plants; [14]): 9.1 grams
- change in biomass, percent (Corn plants; [14]): 14.1%
- change in root length (Corn plants; [14]): 65.3
- change in root length, relative (in brackets) (Corn plants; [14]): 3.6
- Plant Biomass (Corn plants; [15]): 74.1 a g
- Root Length (Corn plants; [15]): 1855.9 a cm
- Fruit/Vine (count) [2, 3]: 9.50 a count
- Vine Length [2, 3]: 51.0 a cm
- increase in average fruit per vine [2, 4]: 4.75
- increase in average fruit per vine, percent [2, 4]: 100.0%
- increase in vine development [2, 4]: 14.5 cm
- increase in vine development, percent [2, 4]: 39.7%
